# Data published in patent US11780821B2, “Inhibitors of fibroblast activation protein” (Praxis Biotech LLC, priority 2017, dated 2023).
# Read-outs that look alike come from different tables or passages of the source.
# Columns and labels:
# Type in all cases: biochemical
# [1] = target: T1, recombinant mouse DPPIV (rmDPPIV) (Mus musculus, UniProt P28843); experiment: DPPIV enzymatic activity assay; conditions: H-Gly-Pro-pNA substrate
# T1 construct: purchased R&S system (so in the source)
# [2] = target: T2, recombinant human DPPIV (rhDPPIV) (Homo sapiens, UniProt P27487); experiment: DPPIV enzymatic activity assay; conditions: H-Gly-Pro-pNA substrate
# T2 construct: purchased R&S system (so in the source)
# [3] = target: T3, recombinant mouse FAPα (rmFAPα) (Mus musculus, UniProt P97321); experiment: FAPα enzymatic exopeptidase (dipeptidase) activity assay; conditions: for IC50: exopeptidase, read-out: rmFAPα (exo IC50)
# T3 construct: purchased R&S system (so in the source)
# T3 sequence (P97321 1-761): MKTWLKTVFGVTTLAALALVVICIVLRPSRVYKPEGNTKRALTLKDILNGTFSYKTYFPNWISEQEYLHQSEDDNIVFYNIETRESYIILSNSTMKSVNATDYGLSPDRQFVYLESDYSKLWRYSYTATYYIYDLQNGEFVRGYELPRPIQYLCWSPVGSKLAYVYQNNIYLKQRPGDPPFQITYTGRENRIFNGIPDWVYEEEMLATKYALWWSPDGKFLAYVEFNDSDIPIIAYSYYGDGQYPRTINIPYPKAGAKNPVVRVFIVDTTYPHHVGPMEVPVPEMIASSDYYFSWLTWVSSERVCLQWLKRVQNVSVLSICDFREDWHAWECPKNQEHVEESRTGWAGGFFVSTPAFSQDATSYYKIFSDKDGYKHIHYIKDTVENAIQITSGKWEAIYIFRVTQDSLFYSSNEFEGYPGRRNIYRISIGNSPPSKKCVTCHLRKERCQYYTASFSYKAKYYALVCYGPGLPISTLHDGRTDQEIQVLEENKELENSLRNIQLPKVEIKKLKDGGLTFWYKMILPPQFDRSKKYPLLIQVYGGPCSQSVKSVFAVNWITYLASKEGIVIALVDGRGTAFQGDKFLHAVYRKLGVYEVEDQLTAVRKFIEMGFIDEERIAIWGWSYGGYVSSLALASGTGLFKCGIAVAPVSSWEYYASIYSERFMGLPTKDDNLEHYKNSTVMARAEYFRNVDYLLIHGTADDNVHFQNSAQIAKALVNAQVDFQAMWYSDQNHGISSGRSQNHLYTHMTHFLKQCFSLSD
# [4] = target: T4, recombinant human FAPα (rhFAPα) (Homo sapiens, UniProt Q12884); experiment: as above; conditions: for IC50: exopeptidase, read-out: rhFAPα (exo IC50)
# T4 construct: purchased R&S system (so in the source)
# T4 sequence (Q12884 1-760): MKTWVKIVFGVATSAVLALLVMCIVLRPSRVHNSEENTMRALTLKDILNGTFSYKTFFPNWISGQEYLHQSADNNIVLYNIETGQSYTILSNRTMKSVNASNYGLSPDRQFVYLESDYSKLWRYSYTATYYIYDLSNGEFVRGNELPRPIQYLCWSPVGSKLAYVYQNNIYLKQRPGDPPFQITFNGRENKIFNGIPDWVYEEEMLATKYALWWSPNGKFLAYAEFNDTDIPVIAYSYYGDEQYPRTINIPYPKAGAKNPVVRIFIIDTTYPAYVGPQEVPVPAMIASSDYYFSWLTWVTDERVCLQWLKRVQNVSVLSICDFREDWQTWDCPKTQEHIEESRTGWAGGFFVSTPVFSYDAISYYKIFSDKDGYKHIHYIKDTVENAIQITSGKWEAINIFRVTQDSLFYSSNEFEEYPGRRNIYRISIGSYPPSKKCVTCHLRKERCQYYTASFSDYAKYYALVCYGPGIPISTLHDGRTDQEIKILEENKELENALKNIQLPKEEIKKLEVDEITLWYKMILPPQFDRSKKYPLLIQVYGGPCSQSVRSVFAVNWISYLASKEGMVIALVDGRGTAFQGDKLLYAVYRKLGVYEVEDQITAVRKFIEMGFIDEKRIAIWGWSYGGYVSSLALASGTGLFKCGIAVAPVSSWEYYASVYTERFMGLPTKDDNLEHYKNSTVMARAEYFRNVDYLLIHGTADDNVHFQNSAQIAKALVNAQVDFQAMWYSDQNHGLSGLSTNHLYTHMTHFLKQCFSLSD
# [5] = target: T5, recombinant mouse PREP (rmPREP) (Mus musculus, UniProt Q9QUR6); experiment: PREP enzymatic activity assay; conditions: Z-Gly-Pro-AMC substrate
# T5 construct: purchased R&S system (so in the source)
# Procedure: (§1) 7-Amino-4-Methylcoumarin (AMC) release was detected by measuring fluorescence at Ex/Em 380/460 nm using a Multifunction Microplate Reader (Synergy 4, Biotek). All measurements were carried out in triplicate.
# [6] = target: T6, recombinant human PREP (rhPREP) (Homo sapiens, UniProt P48147); experiment: PREP enzymatic activity assay; conditions: Z-Gly-Pro-AMC substrate
# T6 sequence (P48147 1-710): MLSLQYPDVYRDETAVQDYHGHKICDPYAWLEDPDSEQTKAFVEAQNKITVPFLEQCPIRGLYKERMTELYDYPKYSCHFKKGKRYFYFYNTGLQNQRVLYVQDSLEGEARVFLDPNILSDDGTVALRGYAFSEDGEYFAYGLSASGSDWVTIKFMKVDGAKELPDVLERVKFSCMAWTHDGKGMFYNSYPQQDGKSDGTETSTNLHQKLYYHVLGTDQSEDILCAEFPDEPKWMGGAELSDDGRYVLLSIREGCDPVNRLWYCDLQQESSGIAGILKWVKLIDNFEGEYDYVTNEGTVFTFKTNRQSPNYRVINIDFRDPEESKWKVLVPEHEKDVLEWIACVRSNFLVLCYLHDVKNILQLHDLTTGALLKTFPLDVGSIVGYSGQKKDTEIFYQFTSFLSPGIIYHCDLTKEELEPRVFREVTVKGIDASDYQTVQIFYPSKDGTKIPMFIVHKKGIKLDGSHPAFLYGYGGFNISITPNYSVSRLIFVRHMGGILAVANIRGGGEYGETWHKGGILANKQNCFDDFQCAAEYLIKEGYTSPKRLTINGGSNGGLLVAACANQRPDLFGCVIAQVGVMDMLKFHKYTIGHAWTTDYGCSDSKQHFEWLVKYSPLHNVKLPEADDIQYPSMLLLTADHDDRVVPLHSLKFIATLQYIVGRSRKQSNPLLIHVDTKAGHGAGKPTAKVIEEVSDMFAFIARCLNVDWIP
# Procedure: as §1
# [7] = target: T3, recombinant mouse FAPα (rmFAPα); experiment: FAPα enzymatic exopeptidase (dipeptidase) activity assay; conditions: 1 μM test compound; Z-Gly-Pro-AMC substrate; read-out: rmFAPα (% exo inh @ 1 μM)
# Procedure: FAPα enzymatic exopeptidase (dipeptidase) activity assay. […] 7-Amino-4-Methylcoumarin (AMC) release was detected by measuring fluorescence at Ex/Em 380/460 nm using a Multifunction Microplate Reader (Synergy 4, Biotek). All measurements were carried out in duplicate. […] For the calculations, the average measurements from reactions containing only vehicle and substrate, without enzyme, were used as a blank and were subtracted from the rest of the measurements. Percent inhibition was calculated using the average measurements from reactions containing vehicle, enzyme, and substrate as the maximum of enzymatic activity. Measurements were performed as a single point.
# [8] = target: T7, recombinant human DPP9 (rhDPP9) (Homo sapiens, UniProt Q86TI2); experiment: DPP9 enzymatic activity assay; conditions: H-Gly-Pro-AMC substrate
# T7 construct: purchased R&S system (so in the source)
# Procedure: as §1
# T1 sequence (P28843 whole entry): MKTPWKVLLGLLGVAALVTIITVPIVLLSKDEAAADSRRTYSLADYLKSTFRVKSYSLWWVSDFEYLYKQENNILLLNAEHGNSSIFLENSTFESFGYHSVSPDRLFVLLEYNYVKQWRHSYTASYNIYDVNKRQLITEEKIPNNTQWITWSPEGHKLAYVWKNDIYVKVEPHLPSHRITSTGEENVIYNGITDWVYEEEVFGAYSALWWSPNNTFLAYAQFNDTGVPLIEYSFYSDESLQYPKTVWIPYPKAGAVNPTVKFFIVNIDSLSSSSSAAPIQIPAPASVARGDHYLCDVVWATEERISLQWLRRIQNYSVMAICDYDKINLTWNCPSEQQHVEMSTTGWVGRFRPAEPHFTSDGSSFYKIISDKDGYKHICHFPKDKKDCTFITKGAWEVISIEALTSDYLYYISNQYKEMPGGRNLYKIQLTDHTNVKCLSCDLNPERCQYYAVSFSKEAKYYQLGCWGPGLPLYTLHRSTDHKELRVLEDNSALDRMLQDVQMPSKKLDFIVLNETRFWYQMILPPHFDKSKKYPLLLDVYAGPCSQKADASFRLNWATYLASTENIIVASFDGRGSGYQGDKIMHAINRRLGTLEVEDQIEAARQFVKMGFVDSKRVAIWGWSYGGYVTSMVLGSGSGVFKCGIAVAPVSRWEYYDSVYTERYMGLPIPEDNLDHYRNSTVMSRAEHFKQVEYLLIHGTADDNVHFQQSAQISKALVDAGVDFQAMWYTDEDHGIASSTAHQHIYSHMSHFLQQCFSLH
# T5 sequence (Q9QUR6 whole entry): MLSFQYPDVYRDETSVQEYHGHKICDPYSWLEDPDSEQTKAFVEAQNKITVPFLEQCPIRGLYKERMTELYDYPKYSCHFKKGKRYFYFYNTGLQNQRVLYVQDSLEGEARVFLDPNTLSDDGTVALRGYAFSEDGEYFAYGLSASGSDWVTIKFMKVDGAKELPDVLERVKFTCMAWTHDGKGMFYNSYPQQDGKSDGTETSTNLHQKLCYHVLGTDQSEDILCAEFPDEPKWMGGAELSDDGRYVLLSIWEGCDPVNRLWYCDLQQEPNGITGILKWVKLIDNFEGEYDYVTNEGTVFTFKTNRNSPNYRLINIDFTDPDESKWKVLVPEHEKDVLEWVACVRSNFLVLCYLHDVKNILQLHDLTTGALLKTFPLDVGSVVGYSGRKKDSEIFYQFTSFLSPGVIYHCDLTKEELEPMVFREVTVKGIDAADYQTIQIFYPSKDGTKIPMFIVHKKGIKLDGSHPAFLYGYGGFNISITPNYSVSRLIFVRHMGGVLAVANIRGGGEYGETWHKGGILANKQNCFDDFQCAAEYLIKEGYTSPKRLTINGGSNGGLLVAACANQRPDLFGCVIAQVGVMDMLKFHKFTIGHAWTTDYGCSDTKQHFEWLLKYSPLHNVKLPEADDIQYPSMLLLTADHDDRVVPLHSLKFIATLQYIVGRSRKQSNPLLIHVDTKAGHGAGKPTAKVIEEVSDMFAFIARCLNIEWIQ
# T2 sequence (P27487 whole entry): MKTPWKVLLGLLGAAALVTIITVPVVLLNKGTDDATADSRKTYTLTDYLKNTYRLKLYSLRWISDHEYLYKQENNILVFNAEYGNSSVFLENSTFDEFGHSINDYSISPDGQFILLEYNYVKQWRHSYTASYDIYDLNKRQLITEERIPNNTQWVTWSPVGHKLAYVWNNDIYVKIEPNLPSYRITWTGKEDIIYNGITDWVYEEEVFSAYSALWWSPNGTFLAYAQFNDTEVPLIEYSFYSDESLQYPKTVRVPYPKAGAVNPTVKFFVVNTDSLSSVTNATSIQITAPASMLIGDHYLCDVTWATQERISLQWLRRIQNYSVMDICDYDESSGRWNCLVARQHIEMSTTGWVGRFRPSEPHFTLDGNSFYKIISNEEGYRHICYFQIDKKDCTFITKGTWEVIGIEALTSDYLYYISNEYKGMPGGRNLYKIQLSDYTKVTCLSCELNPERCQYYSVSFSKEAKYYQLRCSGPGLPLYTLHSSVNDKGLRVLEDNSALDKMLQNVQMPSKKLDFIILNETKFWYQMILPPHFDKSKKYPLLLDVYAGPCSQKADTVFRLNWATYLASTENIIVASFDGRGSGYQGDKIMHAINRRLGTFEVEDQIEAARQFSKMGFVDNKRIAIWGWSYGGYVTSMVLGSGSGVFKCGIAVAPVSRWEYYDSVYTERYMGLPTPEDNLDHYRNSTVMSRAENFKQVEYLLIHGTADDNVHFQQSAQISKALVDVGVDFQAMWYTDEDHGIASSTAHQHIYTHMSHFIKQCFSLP
# T7 sequence (Q86TI2 whole entry): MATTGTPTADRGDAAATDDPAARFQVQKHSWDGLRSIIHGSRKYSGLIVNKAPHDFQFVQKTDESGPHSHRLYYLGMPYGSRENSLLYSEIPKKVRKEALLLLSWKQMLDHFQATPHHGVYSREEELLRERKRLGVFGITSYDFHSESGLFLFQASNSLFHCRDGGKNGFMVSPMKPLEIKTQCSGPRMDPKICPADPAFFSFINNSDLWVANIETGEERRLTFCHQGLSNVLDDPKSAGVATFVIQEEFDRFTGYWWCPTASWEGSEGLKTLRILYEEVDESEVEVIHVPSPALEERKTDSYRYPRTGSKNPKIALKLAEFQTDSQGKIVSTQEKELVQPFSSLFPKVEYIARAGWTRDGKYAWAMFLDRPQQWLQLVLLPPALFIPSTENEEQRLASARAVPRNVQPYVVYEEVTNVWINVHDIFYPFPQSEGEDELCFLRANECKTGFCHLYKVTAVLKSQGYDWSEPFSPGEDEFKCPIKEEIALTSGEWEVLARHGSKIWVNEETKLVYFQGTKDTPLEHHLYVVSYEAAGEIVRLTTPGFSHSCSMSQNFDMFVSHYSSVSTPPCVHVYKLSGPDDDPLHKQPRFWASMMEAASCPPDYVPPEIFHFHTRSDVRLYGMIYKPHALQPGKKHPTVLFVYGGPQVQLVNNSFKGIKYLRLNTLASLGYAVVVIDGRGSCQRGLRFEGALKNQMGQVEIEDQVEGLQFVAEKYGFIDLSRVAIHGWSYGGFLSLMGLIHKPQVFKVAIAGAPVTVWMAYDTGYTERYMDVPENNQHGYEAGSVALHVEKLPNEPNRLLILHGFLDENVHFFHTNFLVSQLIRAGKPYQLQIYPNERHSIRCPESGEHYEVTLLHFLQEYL
SMILES,IC50 [1] [nM],IC50 [2] [nM],"IC50 ([3]; Table 2, Z-Gly-Pro-AMC) [nM]",IC50 ([3]; Table 3) [nM],inhibition at 1 µM ([3]; read-out: rmFAPα (% exo inh @ 1 μM)) [%],"IC50 ([4]; Table 2, Z-Gly-Pro-AMC) [nM]",IC50 [5] [nM],IC50 [6] [nM],inhibition at 1 µM [7] [%],IC50 ([4]; Table 3) [nM],inhibition at 1 µM ([4]; read-out: rhFAPα (% exo inh @ 1 μM)) [%],IC50 [8] [nM]
"N#C[C@@H]1CC(F)(F)CN1C(=O)CNC(=O)c1ccc(=O)[nH]c1 [Example 6, (S)—N-(2-(2-cyano-4,4-difluoropyrrolidin-1-yl)-2-oxoethyl)-6-oxo-1,6-dihydropyridine-3-carboxamide]",> 10000,> 10000,< 1000,< 1000,> 50,< 1000,,,,,,
"N#C[C@@H]1CC(F)(F)CN1C(=O)CNC(=O)c1ccc2ncccc2c1 [Example 4, (S)—N-(2-(2-cyano-4,4-difluoropyrrolidin-1-yl)-2-oxoethyl)quinoline-6-carboxamide]",1000 to 10000,> 10000,< 1000,< 1000,,< 1000,> 10000,> 10000,> 50,,,
"Cn1cc(C(=O)NCC(=O)N2CC(F)(F)C[C@H]2C#N)ccc1=O [Compound 16, (S)—N-(2-(2-cyano-4,4-difluoropyrrolidin-1-yl)-2-oxoethyl)-1-methyl-6-oxo-1,6-dihydropyridine-3-carboxamide]",> 10000,,,,,< 1000,> 10000,,,< 1000,> 50,
"N#C[C@@H]1CC(F)(F)CN1C(=O)CNC(=O)C1Cc2ccccc2C1 [Example 7, (S)—N-(2-(2-cyano-4,4-difluoropyrrolidin-1-yl)-2-oxoethyl)-2,3-dihydro-1H-indene-2-carboxamide]",,,,,,,,,< 25,,,
"N#C[C@@H]1CC(F)(F)CN1C(=O)CNC(=O)c1cn(-c2ccccc2)c(=O)c2ccccc12 [Example 2, (S)—N-(2-(2-cyano-4,4-difluoropyrrolidin-1-yl)-2-oxoethyl)-1-oxo-2-phenyl-1,2-dihydroisoquinoline-4-carboxamide]",,,,,,,,,25 to 50,,,
"Cn1cc(C(=O)NCC(=O)N2CC(F)(F)C[C@H]2C#N)c2ccccc2c1=O [Example 9, (S)—N-(2-(2-cyano-4,4-difluoropyrrolidin-1-yl)-2-oxoethyl)-2-methyl-1-oxo-1,2-dihydroisoquinoline-4-carboxamide]",> 10000,,< 1000,< 1000,,< 1000,< 1000,,> 50,< 1000,,> 10000
"N#C[C@@H]1CC(F)(F)CN1C(=O)CNC(=O)c1ccc(C(N)=O)cc1 [Compound 11, (S)—N-(2-(2-cyano-4,4-difluoropyrrolidin-1-yl)-2-oxoethyl)terephthalamide]",,,,,,,,,25 to 50,,,
